Data reported in US12383710B2 (Urotronic, Inc., priority 2019, dated 2025).

Legend:
[1] = stability under ethylene oxide sterilization, heating, and aging with paclitaxel; details: reacted with paclitaxel
[2] = BPH Preclinical Study 4: tissue and plasma PK, histology

Row | Compound | stability under ethylene oxide sterilization, heating, and aging process [1] | prostate tissue drug concentration, maximum dose arm vs standard dose ([2]; 28 days) | prostatic urethra tissue drug concentration, maximum dose arm vs standard dose ([2]; 28 days) | prostate tissue drug concentration, maximum dose arm vs standard dose ([2]; 70 days) | prostatic urethra tissue drug concentration, maximum dose arm vs standard dose ([2]; 70 days) | clinical abnormalities ([2]; all animals, duration of the study) | increase of urethral luminal diameter as a result of commissurotomy ([2]; did not change between 7 days and 70 days) | histology of the prostate ([2]; maximum dose animals, 28 days, slower healing relative to standard dose and control) | abnormalities or complications ([2]; maximum dose treatment arm, 19.6 mg of paclitaxel) | plasma paclitaxel concentration ([2]; maximum dose, 12 hour and later) | nonurethral close proximity tissue sample concentrations ([2]; most samples, 28 days and beyond) | plasma paclitaxel concentration ([2]; standard dose, all time-points (1, 3, 7, 12 hours, 1, 3, 7, 14, 28 days))
1 | O=C(O)c1ccccc1 [benzoic acid] | not stable | – | – | – | – | – | – | – | – | – | – | –
2 | CC(=O)O[C@H]1C(=O)[C@@]2(C)[C@H]([C@H](OC(=O)c3ccccc3)[C@]3(O)C[C@H](OC(=O)[C@H](O)[C@@H](NC(=O)c4ccccc4)c4ccccc4)C(C)=C1C3(C)C)[C@]1(OC(C)=O)CO[C@@H]1C[C@@H]2O [paclitaxel] | – | 4.5 times higher | 11 times higher | 23 times higher | 23 times higher | No significant clinical abnormalities | approximately 50% | ongoing healing | no abnormalities or complications | BLOQ | at or below the limit of quantification | BLOQ
